From US20100022531A1, “NOVEL COMPOUNDS AS P2X7 MODULATORS AND USES THEREOF” (RENOVIS, INC., priority 2005, published 2010)
Like-named read-outs stand apart in the source and are kept apart here.

Biological target: T1, P2X7 receptor (Homo sapiens, UniProt Q99572)
T1 construct: host or cells: THP-1 cells differentiated with LPS and IFN-γ
T1 sequence (Q99572 1-595): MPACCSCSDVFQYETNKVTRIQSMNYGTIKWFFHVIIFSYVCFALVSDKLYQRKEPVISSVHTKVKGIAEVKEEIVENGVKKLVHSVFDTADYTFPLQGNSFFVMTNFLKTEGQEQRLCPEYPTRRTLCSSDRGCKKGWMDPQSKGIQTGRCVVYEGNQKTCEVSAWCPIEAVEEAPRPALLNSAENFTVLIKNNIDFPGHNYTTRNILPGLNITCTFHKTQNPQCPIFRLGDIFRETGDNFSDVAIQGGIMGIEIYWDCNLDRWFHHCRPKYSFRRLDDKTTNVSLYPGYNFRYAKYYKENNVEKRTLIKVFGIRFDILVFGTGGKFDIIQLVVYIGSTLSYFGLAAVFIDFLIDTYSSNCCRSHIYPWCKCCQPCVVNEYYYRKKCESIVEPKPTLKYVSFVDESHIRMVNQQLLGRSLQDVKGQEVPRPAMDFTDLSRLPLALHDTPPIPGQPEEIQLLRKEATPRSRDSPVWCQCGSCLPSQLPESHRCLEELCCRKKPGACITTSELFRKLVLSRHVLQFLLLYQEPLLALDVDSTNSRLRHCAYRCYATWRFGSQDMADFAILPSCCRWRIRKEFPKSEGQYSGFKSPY
Experiment: Alternate method for IL-1β release assay (differentiated THP-1 cells, BzATP-stimulated, ELISA)
Format: cell-based
Conditions: P2X7; for inhibition at 0.3 µM: read-out: IL-1β % inhib @ 0.3 μM; for inhibition at 0.1 µM: read-out: IL-1β % inhib @ 0.1 μM
Experimental: Alternate Method for IL-1β Release Assay
THP-1 cells (ATCC Cat #285-IF-100) are plated in 96 well plates at a concentration of 200,000 cells per well and allowed to differentiate in RPMI-1640 media (ATCC Cat #30-2001) containing 10% FBS, 100 IU/mL penicillin, 100 ug/mL streptomycin, 100 ng/mL LPS and 100 ng/mL IFN-γ for 16 hours. Following differentiation, the cells are treated for an additional 2 hours in RPMI-1640 media containing 100 IU/mL penicillin, 100 ug/mL streptomycin and fresh LPS at 100 ng/mL. The cells are then pretreated for 30 minutes with the compound of interest at the appropriate concentration in RPMI media containing 100 IU/mL penicillin, 100 ug/mL streptomycin. Following the pretreatment 2′,3′-O-(4-benzoylbenzoyl)-adenosine 5′-triphosphate (Sigma Aldrich Cat# B6396) is added to a final concentration of 250 uM and the cells incubated for an additional 45 minutes. 30 uL of cell supernatant is then collected and IL-1β levels determined via ELISA (R&D systems Cat. # HSLB50) according to manufacturers recommendations using the Tecan Safire plate reader. Background adjusted IL-1β levels of drug treated and non-treated cells are used to calculate the percent inhibition.

[1] = 0.3 μM compound (asterisk symbols)
[2] = 0.3 μM compound (symbols * to ****)

SMILES | inhibition at 0.3 µM [1] | inhibition at 0.3 µM [2] | further results
Cc1cc(C(=O)N2CCc3c(ncnc3NCC34CC5CC(CC(C5)C3)C4)C2)nn1C [Compound 139] | 0 to 25% |  | 
O=C(c1ccc2ccccc2c1)N1CCc2c(ncnc2NCC23CC4CC(CC(C4)C2)C3)C1 [Compound 143] | 50 to 75% |  | 
Cc1ccc(C(=O)N2CCc3c(ncnc3NCC34CC5CC(CC(C5)C3)C4)C2)cc1 [Compound 144] | 50 to 75% |  | 
Cc1cc(C(=O)N2CCc3c(ncnc3NCC34CC5CC(CC(C5)C3)C4)C2)c(C)o1 [Compound 146] | > 75% |  | 
O=C(c1ccccc1Cl)N1CCc2c(ncnc2NCC23CC4CC(CC(C4)C2)C3)C1 [Compound 147] | 0 to 25% |  | 
CC(=O)N1CCC(C(=O)N2CCc3c(ncnc3NCC34CC5CC(CC(C5)C3)C4)C2)CC1 [Compound 148] | 0 to 25% |  | 
O=C(c1ccno1)N1CCc2c(ncnc2NCC23CC4CC(CC(C4)C2)C3)C1 [Compound 149] |  |  | inhibition at 0.1 µM (0.1 μM compound (plus symbols)): > 75%
Cc1cc(C(=O)N2CCc3c(ncnc3NCC34CC5CC(CC(C5)C3)C4)C2)n(C(C)(C)C)n1 [Compound 151] | 25 to 50% |  | 
CC(C)(C)c1ccc(C(=O)N2CCc3c(ncnc3NCC34CC5CC(CC(C5)C3)C4)C2)cc1 [Compound 152] | > 75% |  | 
O=C(Cc1ccccc1Br)N1CCc2c(ncnc2NCC23CC4CC(CC(C4)C2)C3)C1 [Compound 153] | 0 to 25% |  | 
O=C(c1ccc2ccccc2n1)N1CCc2c(ncnc2NCC23CC4CC(CC(C4)C2)C3)C1 [Compound 154] | 25 to 50% |  | 
COc1ccc(C(=O)N2CCc3c(ncnc3NCC34CC5CC(CC(C5)C3)C4)C2)cc1F [Compound 158] | > 75% |  | 
COc1ccc(C(=O)N2CCc3c(ncnc3NCC34CC5CC(CC(C5)C3)C4)C2)cc1OC [Compound 159] | > 75% |  | 
O=C(C1COc2ccccc2C1)N1CCc2c(ncnc2NCC23CC4CC(CC(C4)C2)C3)C1 (stereo not shown) [Compound 160] | > 75% |  | 
CC(CCN1CCc2c(ncnc2NCC23CC4CC(CC(C4)C2)C3)C1)CC(C)(C)C (stereo not shown) [Compound 163] | > 75% |  | 
c1ccc(C(CN2CCc3c(ncnc3NCC34CC5CC(CC(C5)C3)C4)C2)c2ccccc2)cc1 [Compound 164] | > 75% |  | 
CC(CN1CCc2c(ncnc2NCC23CC4CC(CC(C4)C2)C3)C1)c1ccccc1 (stereo not shown) [Compound 165] | 0 to 25% |  | 
CCCN1CCc2c(ncnc2NCC23CC4CC(CC(C4)C2)C3)C1 [Compound 166] | 0 to 25% |  | 
c1nc2c(c(NCC34CC5CC(CC(C5)C3)C4)n1)CCN(CC1CCCCC1)C2 [Compound 167] | > 75% |  | 
c1nc2c(c(NCC34CC5CC(CC(C5)C3)C4)n1)CCN(CC1CC1)C2 [Compound 168] | 0 to 25% |  | 
CCCCCN1CCc2c(ncnc2NCC23CC4CC(CC(C4)C2)C3)C1 [Compound 169] | > 75% |  | 

SMILES | inhibition at 0.3 µM [1] | inhibition at 0.3 µM [2] | further results
c1ccc(CCCN2CCc3c(ncnc3NCC34CC5CC(CC(C5)C3)C4)C2)cc1 [Compound 170] | 0 to 25% |  | 
COc1ccc(CN2CCc3c(ncnc3NCC34CC5CC(CC(C5)C3)C4)C2)cc1 [Compound 173] | 0 to 25% |  | 
c1nc2c(c(NCC34CC5CC(CC(C5)C3)C4)n1)CCN(Cc1ccc3c(c1)OCO3)C2 [Compound 175] | 25 to 50% |  | 
c1ccc2cc(CN3CCc4c(ncnc4NCC45CC6CC(CC(C6)C4)C5)C3)ccc2c1 [Compound 176] | 0 to 25% |  | 
COc1ccc(CN2CCc3c(ncnc3NCC34CC5CC(CC(C5)C3)C4)C2)cc1OC [Compound 177] | 0 to 25% |  | 
Cc1ccc2occ(CN3CCc4c(ncnc4NCC45CC6CC(CC(C6)C4)C5)C3)c(=O)c2c1 [Compound 178] | 25 to 50% |  | 
c1ccc(Oc2cccc(CN3CCc4c(ncnc4NCC45CC6CC(CC(C6)C4)C5)C3)c2)cc1 [Compound 179] | 25 to 50% |  | 
Clc1ccc(CN2CCc3c(ncnc3NCC34CC5CC(CC(C5)C3)C4)C2)c(Cl)c1 [Compound 181] | 25 to 50% |  | 
N#Cc1cccc(CN2CCc3c(ncnc3NCC34CC5CC(CC(C5)C3)C4)C2)c1 [Compound 182] | > 75% |  | 
CC1(C)C2CC=C(CN3CCc4c(ncnc4NCC45CC6CC(CC(C6)C4)C5)C3)C1C2 (stereo not shown) [Compound 184] | > 75% |  | 
c1ccc(Oc2ccc(CN3CCc4c(ncnc4NCC45CC6CC(CC(C6)C4)C5)C3)cc2)cc1 [Compound 187] | 50 to 75% |  | 
CCCCN1CCc2c(ncnc2NCC23CC4CC(CC(C4)C2)C3)C1 [Compound 189] | 0 to 25% |  | 
CCN1CCc2c(ncnc2NCC23CC4CC(CC(C4)C2)C3)C1 [Compound 190] | 25 to 50% |  | 
CCC(CC)CN1CCc2c(ncnc2NCC23CC4CC(CC(C4)C2)C3)C1 [Compound 192] | > 75% |  | 
CCCC(C)CN1CCc2c(ncnc2NCC23CC4CC(CC(C4)C2)C3)C1 (stereo not shown) [Compound 193] | > 75% |  | 
CC(C)CCN1CCc2c(ncnc2NCC23CC4CC(CC(C4)C2)C3)C1 [Compound 194] | 25 to 50% |  | 
COc1cccc(CN2CCc3c(ncnc3NCC34CC5CC(CC(C5)C3)C4)C2)c1 [Compound 195] | > 75% |  | 
Cc1ccc(CN2CCc3c(ncnc3NCC34CC5CC(CC(C5)C3)C4)C2)cc1C [Compound 196] | 0 to 25% |  | 
COc1ccc(CN2CCc3c(ncnc3NCC34CC5CC(CC(C5)C3)C4)C2)c(Cl)c1OC [Compound 197] | 0 to 25% |  | 
Brc1cc2c(cc1CN1CCc3c(ncnc3NCC34CC5CC(CC(C5)C3)C4)C1)OCO2 [Compound 198] |  | 0 to 25% | 
COc1cc(CN2CCc3c(ncnc3NCC34CC5CC(CC(C5)C3)C4)C2)ccc1OCc1ccccc1 [Compound 199] |  | 0 to 25% | 

SMILES | inhibition at 0.3 µM [1] | inhibition at 0.3 µM [2] | further results
c1nc2c(c(NCC34CC5CC(CC(C5)C3)C4)n1)CCN(Cc1ccc3c(c1)OCCO3)C2 [Compound 200] |  | 0 to 25% | 
Clc1ccc(CN2CCc3c(ncnc3NCC34CC5CC(CC(C5)C3)C4)C2)cc1Cl [Compound 201] |  | 0 to 25% | 
COc1cccc(CN2CCc3c(ncnc3NCC34CC5CC(CC(C5)C3)C4)C2)c1OC [Compound 202] |  | > 75% | 
COc1ccc(CN2CCc3c(ncnc3NCC34CC5CC(CC(C5)C3)C4)C2)cc1OCc1ccccc1 [Compound 203] |  | 0 to 25% | 
COc1ccc(CN2CCc3c(ncnc3NCC34CC5CC(CC(C5)C3)C4)C2)cc1O [Compound 204] |  | 0 to 25% | 
COc1cc(CN2CCc3c(ncnc3NCC34CC5CC(CC(C5)C3)C4)C2)cc(Br)c1OC [Compound 205] |  | 0 to 25% | 
N#Cc1cc(CN2CCc3c(ncnc3NCC34CC5CC(CC(C5)C3)C4)C2)ccc1F [Compound 206] |  | > 75% | 
c1cc(CN2CCc3c(ncnc3NCC34CC5CC(CC(C5)C3)C4)C2)c2c(c1)OCO2 [Compound 207] |  |  | inhibition at 0.1 µM (0.1 μM compound (symbols + to ++++)): > 75%
Brc1ccc(CN2CCc3c(ncnc3NCC34CC5CC(CC(C5)C3)C4)C2)cc1 [Compound 208] |  | > 75% | 
Clc1cccc(CN2CCc3c(ncnc3NCC34CC5CC(CC(C5)C3)C4)C2)c1 [Compound 209] |  | 0 to 25% | 
Clc1cc2c(cc1CN1CCc3c(ncnc3NCC34CC5CC(CC(C5)C3)C4)C1)OCO2 [Compound 210] |  | 0 to 25% | 
CC(C)(C)CN1CCc2c(ncnc2NCC23CC4CC(CC(C4)C2)C3)C1 [Compound 211] |  | > 75% | 
Clc1ccc(CN2CCc3c(ncnc3NCC34CC5CC(CC(C5)C3)C4)C2)cc1 [Compound 212] |  | > 75% | 
N#Cc1ccc(CN2CCc3c(ncnc3NCC34CC5CC(CC(C5)C3)C4)C2)cc1 [Compound 214] |  | 25 to 50% | 
FC(F)(F)c1ccc(CN2CCc3c(ncnc3NCC34CC5CC(CC(C5)C3)C4)C2)cc1 [Compound 215] |  | 0 to 25% | 
Fc1cccc(CN2CCc3c(ncnc3NCC34CC5CC(CC(C5)C3)C4)C2)c1 [Compound 216] |  | > 75% | 
Cc1cccc(CN2CCc3c(ncnc3NCC34CC5CC(CC(C5)C3)C4)C2)c1 [Compound 217] |  | > 75% | 
Fc1ccc(CN2CCc3c(ncnc3NCC34CC5CC(CC(C5)C3)C4)C2)cc1 [Compound 218] |  | > 75% | 
COc1ccc(CN2CCc3c(ncnc3NCC34CC5CC(CC(C5)C3)C4)C2)c(OC)c1 [Compound 219] |  | 0 to 25% | 
